Reference: paper PMC9403976, “Elucidating the path to Plasmodium prolyl-tRNA synthetase inhibitors that overcome halofuginone resistance” (Nature Communications, 2022)
Where “and” joins values, the source holds several entries; their conditions need not be identical. Equal values may be shown once. Read-outs that look alike come from different tables or passages of the source.

Tests used:
HsProRS = HsProRS (Homo sapiens, UniProt P07814); assay: TR-FRET ligand displacement assay with tracer MAT379 (CoraFluor-1-Halo and anti-His6 antibody formats); assay type: binding; set-up: made in house; host or cells: E. coli SoluBL-21
PfcProRS = target: T1, PfcProRS (Plasmodium falciparum, UniProt Q8I5R7); assay type: binding; conditions: for Normalized response, dose-response replicates (SI Fig 14): replicates 1-3; for PfcProRS -- best Kd: SI Fig 16a, values on -log scale
T1 construct: made in house; host or cells: E. coli SoluBL-21

P. falciparum Dd2-2D4 = assay: P. falciparum asexual blood stage (ABS) growth assay, SYBR Green, 72 h, wild-type parasites; assay type: cell-based, Plasmodium falciparum
[1] = HsProRS (KD [nM]) mean, no added proline/ATP (-)

HsProRS, sequence (P07814 996-1512): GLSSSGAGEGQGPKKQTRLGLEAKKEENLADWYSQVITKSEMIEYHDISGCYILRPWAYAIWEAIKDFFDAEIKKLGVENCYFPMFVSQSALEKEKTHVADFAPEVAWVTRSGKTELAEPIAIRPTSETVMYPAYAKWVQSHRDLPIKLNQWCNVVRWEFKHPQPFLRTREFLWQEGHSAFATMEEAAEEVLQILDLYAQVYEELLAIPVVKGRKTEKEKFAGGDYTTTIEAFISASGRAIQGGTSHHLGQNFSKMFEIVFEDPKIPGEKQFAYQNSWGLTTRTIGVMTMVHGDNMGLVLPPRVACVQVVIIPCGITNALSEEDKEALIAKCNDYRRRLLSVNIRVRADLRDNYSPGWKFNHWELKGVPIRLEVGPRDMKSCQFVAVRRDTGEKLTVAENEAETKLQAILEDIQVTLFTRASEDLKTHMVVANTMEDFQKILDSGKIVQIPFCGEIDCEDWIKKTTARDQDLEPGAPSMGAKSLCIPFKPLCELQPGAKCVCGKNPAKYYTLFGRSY
T1 sequence (Q8I5R7 249-746): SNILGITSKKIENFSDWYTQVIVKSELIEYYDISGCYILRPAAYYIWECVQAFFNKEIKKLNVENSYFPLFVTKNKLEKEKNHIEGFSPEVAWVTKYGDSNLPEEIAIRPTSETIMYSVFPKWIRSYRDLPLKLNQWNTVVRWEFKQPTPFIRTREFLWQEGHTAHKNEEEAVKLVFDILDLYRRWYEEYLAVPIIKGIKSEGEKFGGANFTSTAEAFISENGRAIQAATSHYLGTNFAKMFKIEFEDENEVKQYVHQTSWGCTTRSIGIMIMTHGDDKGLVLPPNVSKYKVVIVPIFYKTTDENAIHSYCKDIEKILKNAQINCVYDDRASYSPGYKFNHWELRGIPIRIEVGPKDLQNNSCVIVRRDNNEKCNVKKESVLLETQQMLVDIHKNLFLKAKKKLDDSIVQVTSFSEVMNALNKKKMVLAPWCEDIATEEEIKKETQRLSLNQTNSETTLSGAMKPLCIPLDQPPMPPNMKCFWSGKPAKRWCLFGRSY

Row | SMILES | Kd (HsProRS; [1]) [nM] | Normalized response, dose-response replicates (SI Fig 14) (PfcProRS; Log[inhibitor] (M) -5.000) | Normalized response, dose-response replicates (SI Fig 14) (PfcProRS; Log[inhibitor] (M) -5.301) | Normalized response, dose-response replicates (SI Fig 14) (PfcProRS; Log[inhibitor] (M) -5.601) | Normalized response, dose-response replicates (SI Fig 14) (PfcProRS; Log[inhibitor] (M) -5.904) | Normalized response, dose-response replicates (SI Fig 14) (PfcProRS; Log[inhibitor] (M) -6.208) | Normalized response, dose-response replicates (SI Fig 14) (PfcProRS; Log[inhibitor] (M) -6.509) | Normalized response, dose-response replicates (SI Fig 14) (PfcProRS; Log[inhibitor] (M) -6.796) | Normalized response, dose-response replicates (SI Fig 14) (PfcProRS; Log[inhibitor] (M) -7.108) | Normalized response, dose-response replicates (SI Fig 14) (PfcProRS; Log[inhibitor] (M) -7.409) | Normalized response, dose-response replicates (SI Fig 14) (PfcProRS; Log[inhibitor] (M) -7.710) | Normalized response, dose-response replicates (SI Fig 14) (PfcProRS; Log[inhibitor] (M) -8.000) | Normalized response, dose-response replicates (SI Fig 14) (PfcProRS; Log[inhibitor] (M) -8.301) | Normalized response, dose-response replicates (SI Fig 14) (PfcProRS; Log[inhibitor] (M) -8.602) | Normalized response, dose-response replicates (SI Fig 14) (PfcProRS; Log[inhibitor] (M) -9.000) | Normalized response, dose-response replicates (SI Fig 14) (PfcProRS; Log[inhibitor] (M) -9.301) | PfcProRS -- best Kd (PfcProRS) | also measured
1 | CC(C)(C)OC(=O)NCCCCCC(=O)NCC1CCN(C(=O)Nc2nccnc2C(=O)NC2Cc3ccccc3C2)CC1 [compound 43] | 611 | 3.94E-01 and 2.57E-01 and 2.74E-01 | 4.70E-01 and 4.27E-01 and 4.95E-01 | 6.21E-01 and 6.23E-01 and 5.88E-01 | 7.25E-01 and 7.36E-01 and 7.34E-01 | 8.39E-01 and 7.98E-01 and 7.48E-01 | 9.01E-01 and 9.26E-01 and 9.21E-01 | 8.44E-01 and 9.34E-01 and 8.61E-01 | 8.07E-01 and 9.41E-01 and 7.86E-01 | 8.06E-01 and 8.12E-01 and 9.38E-01 | 9.31E-01 and 8.84E-01 and 7.70E-01 | 9.59E-01 and 9.87E-01 and 9.57E-01 | 1.01E+00 and 8.79E-01 and 9.74E-01 | 9.04E-01 and 9.28E-01 and 9.93E-01 | 8.86E-01 and 8.79E-01 and 9.68E-01 | 8.43E-01 and 8.23E-01 and 8.26E-01 | 6.495 | Kd (HsProRS; HsProRS (KD [nM]) + 100 μM proline mean, + 100 μM proline): 2280 nM; EC50 (P. falciparum Dd2-2D4; Plasmodium falciparum, DD2, SI Fig 16b, values on -log scale, read-out: ABS - Dd2-2D4 (converted)): 3.33 µM
2 | NCCCCCC(=O)NCC1CCN(C(=O)Nc2nccnc2C(=O)NC2Cc3ccccc3C2)CC1 [compound 44] | 1570 | 5.04E-02 and 6.61E-02 and 1.21E-01 | 2.04E-01 and 9.30E-02 and 7.91E-02 | 1.77E-01 and 2.33E-01 and 2.91E-01 | 3.70E-01 and 3.87E-01 and 3.95E-01 | 5.30E-01 and 6.18E-01 and 4.52E-01 | 5.98E-01 and 6.58E-01 and 5.97E-01 | 8.14E-01 and 8.03E-01 and 8.36E-01 | 7.21E-01 and 9.08E-01 and 7.69E-01 | 9.22E-01 and 9.63E-01 and 8.84E-01 | 9.26E-01 and 9.41E-01 and 9.94E-01 | 9.86E-01 and 9.96E-01 and 9.45E-01 | 1.01E+00 and 1.07E+00 and 1.09E+00 | 1.05E+00 and 9.10E-01 and 8.68E-01 | 8.54E-01 and 1.03E+00 and 1.01E+00 | 1.02E+00 and 8.64E-01 and 7.91E-01 | 6.569 | Kd (HsProRS; HsProRS - best Kd, SI Fig 16a, values on -log scale): 330 nM; % signal at 10 μM, wildtype (Dd2-2D4) (P. falciparum Dd2-2D4; wildtype (Dd2-2D4), 10 μM): 51.4%
